Patent US20230339937A1, “CONDENSED RING COMPOUNDS THAT INHIBIT H-PGDS” (SATO PHARMACEUTICAL CO., LTD., priority 2020, published 2023)
pIC50: −log10 of the molar value.

Biological target: T1, Recombinant human H-PGDS (Homo sapiens, UniProt O60760)
T1 construct: made in house; host or cells: E. coli
Experiment: H-PGDS inhibitory activity (prostaglandin D2 production from prostaglandin H2, measured by LC-MS/MS)
Format: biochemical
Settings: recombinant human H-PGDS 1.0 nM expressed in E. coli; prostaglandin H2 25 μM; preincubated 15 minutes on ice, reacted on ice for 1 minute; concentration that inhibits prostaglandin D2 production by 50%
Method in brief: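 PGD2 formed from 25 µM prostaglandin H2 during a 1-min on-ice reaction was measured by LC-MS/MS after an FeCl2/citric acid stop. The enzyme was 1.0 nM E. coli-expressed human H-PGDS in Tris-HCl pH 8.0 buffer with MgCl2, reduced glutathione and γ-globulin, preincubated with compound for 15 min on ice. Production was normalised to DMSO controls minus the no-enzyme background.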

T1 sequence (O60760 whole entry): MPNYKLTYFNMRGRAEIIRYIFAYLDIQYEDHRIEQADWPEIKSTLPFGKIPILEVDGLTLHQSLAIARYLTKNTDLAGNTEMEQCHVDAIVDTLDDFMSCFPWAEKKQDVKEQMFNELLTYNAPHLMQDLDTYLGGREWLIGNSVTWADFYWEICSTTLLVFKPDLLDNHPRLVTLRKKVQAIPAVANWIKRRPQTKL

| Compound | pIC50 |
| --- | --- |
| Cn1cnc(CO)c1N1CCC(NC(=O)c2ccc(-c3nccc4occc34)cc2)CC1 [Example 253, 4-(furo[3,2-c]pyridin-4-yl)-N-{1-[4-(hydroxymethyl)-1-methyl-1H-imidazol-5-yl]piperidin-4-yl}benzamide] | 8.96 |
| CCOC(=O)c1cnc(N2CCC(NC(=O)c3ccc(-c4nccc5occc45)cc3)CC2)o1 [Example 254, ethyl 2-{4-[4-(furo[3,2-c]pyridin-4-yl)benzamide]piperidin-1-yl]oxazole-5-carboxylate] | 8.40 |
| O=C(NC1CCN(c2ncc(CO)o2)CC1)c1ccc(-c2nccc3occc23)cc1 [Example 255, 4-(furo[3,2-c]pyridin-4-yl)-N-{1-[5-(hydroxymethyl)oxazol-2-yl]piperidin-4-yl}benzamide] | 8.82 |
| O=C(N[C@H]1CC[C@H](O)CC1)c1ccc(-c2nccc3occc23)cc1 [Example 256, 4-(furo[3,2-c]pyridin-4-yl)-N-(trans-4-hydroxycyclohexyl)benzamide] | 8.59 |
| O=C(N[C@H]1CC[C@H](C2(O)CC2)CC1)c1ccc(-c2nccc3occc23)cc1 [Example 257, 4-(furo[3,2-c]pyridin-4-yl)-N-[trans-4-(1-hydroxycyclopropyl)cyclohexyl]benzamide] | 8.80 |
| O=C(N[C@H]1CC[C@H](OCC2(O)CC2)CC1)c1ccc(-c2nccc3occc23)cc1 [Example 258, 4-(furo[3,2-c]pyridin-4-yl)-N-{trans-4-[(1-hydroxycyclopropyl)methoxy]cyclohexyl}benzamide] | 9.03 |
| C[C@]1(O)CC[C@H](NC(=O)c2ccc(-c3nccc4occc34)cc2)CC1 [Example 259, 4-(furo[3,2-c]pyridin-4-yl)-N-(trans-4-hydroxy-4-methylcyclohexyl)benzamide] | 8.70 |
| O=C(NC12CCC(O)(CC1)CC2)c1ccc(-c2nccc3occc23)cc1 [Example 260, 4-(furo[3,2-c]pyridin-4-yl)-N-(4-hydroxybicyclo[2.2.2]octan-1-yl)benzamide] | 8.72 |
| COC(=O)[C@H]1CC[C@H](NC(=O)c2ccc(-c3nccc4occc34)cc2)CC1 [Example 261, Methyl trans-4-[4-(furo[3,2-c]pyridin-4-yl)benzamide]cyclohexane-1-carboxylate] | 8.80 |
| O=C(N[C@H]1CC[C@@H](O)CC1)c1ccc(-c2nccc3occc23)cc1 [Example 262, 4-(furo[3,2-c]pyridin-4-yl)-N-(cis-4-hydroxycyclohexyl)benzamide] | 8.60 |
| O=C(N[C@H]1CC[C@H](OC(F)F)CC1)c1ccc(-c2nccc3occc23)cc1 [Example 263, N-[trans-4-(difluoromethoxy)cyclohexyl]-4-(furo[3,2-c]pyridin-4-yl)benzamide] | 8.38 |
| O=C(N[C@H]1CC[C@@](O)(C(F)(F)F)CC1)c1ccc(-c2nccc3occc23)cc1 [Example 264, 4-(furo[3,2-c]pyridin-4-yl)-N-[trans-4-hydroxy-4-(trifluoromethyl)cyclohexyl]benzamide] | 8.46 |
| O=C(N[C@H]1C[C@@H](O)C1)c1ccc(-c2nccc3occc23)cc1 [Example 269, 4-(furo[3,2-c]pyridin-4-yl)-N-(cis-3-hydroxycyclobutyl)benzamide] | 8.28 |
| O=C(N[C@H]1C[C@H](O)C1)c1ccc(-c2nccc3occc23)cc1 [Example 270, 4-(furo[3,2-c]pyridin-4-yl)-N-(trans-3-hydroxycyclobutyl)benzamide] | 8.19 |
| O=C(NC12CC3CC(CC(O)(C3)C1)C2)c1ccc(-c2nccc3occc23)cc1 [Example 271, 4-(furo[3,2-c]pyridin-4-yl)-N-(3-hydroxyadamantan-1-yl)benzamide] | 8.92 |
| O=C(NC1C2CC3CC1CC(O)(C3)C2)c1ccc(-c2nccc3occc23)cc1 (stereo not drawn) [Example 272, 4-(furo[3,2-c]pyridin-4-yl)-N-(trans-5-hydroxyadamantan-2-yl)benzamide] | 8.62 |

| Compound | pIC50 |
| --- | --- |
| CC1(NC(=O)c2ccc(-c3nccc4occc34)cc2)CCC(O)CC1 (stereo not shown) [Example 276, 4-(furo[3,2-c]pyridin-4-yl)-N-(4-hydroxy-1-methylcyclohexyl)benzamide] | 7.92 |
| CC1(C)CC(NC(=O)c2ccc(-c3nccc4occc34)cc2)CCC1O (stereo not shown) [Example 277, 4-(furo[3,2-c]pyridin-4-yl)-N-(4-hydroxy-3,3-dimethylcyclohexyl)benzamide] | 8.46 |
| O=C(NC12CC(O)(C1)C2)c1ccc(-c2nccc3occc23)cc1 [Example 278, 4-(furo[3,2-c]pyridin-4-yl)-N-(3-hydroxybicyclo[1.1.1]pentan-1-yl)benzamide] | 8.48 |
| CC1(C)CC(O)CC(NC(=O)c2ccc(-c3nccc4occc34)cc2)C1 (stereo not shown) [Example 280, 4-(furo[3,2-c]pyridin-4-yl)-N-(5-hydroxy-3,3-dimethylcyclohexyl)benzamide] | 8.66 |
| O=C(NC1CC2CCC(C1)C2O)c1ccc(-c2nccc3occc23)cc1 (stereo not shown) [Example 281, 4-(furo[3,2-c]pyridin-4-yl)-N-(8-hydroxybicyclo[3.2.1]octan-3-yl)benzamide] | 8.70 |
| O=C(N[C@@H]1C[C@H]2C[C@@H](O)C[C@H]2C1)c1ccc(-c2nccc3occc23)cc1 [Example 282, 4-(furo[3,2-c]pyridin-4-yl)-N-[(2r,3aR,5r,6aS)-5-hydroxyoctahydropentalen-2-yl]benzamide] | 8.89 |
| C[C@]1(O)CC[C@@H](NC(=O)c2ccc(-c3nccc4occc34)cc2)CC1 [Example 283, 4-(furo[3,2-c]pyridin-4-yl)-N-(cis-4-hydroxy-4-methylcyclohexyl)benzamide] | 8.77 |
| O=C(NC1CCC2(CC1)COC2)c1ccc(-c2nccc3occc23)cc1 [Example 284, 4-(furo[3,2-c]pyridin-4-yl)-N-(2-oxaspiro[3.5]nonan-7-yl)benzamide] | 8.77 |
| CO[C@H]1CC[C@H](NC(=O)c2ccc(-c3nccc4occc34)cc2)CC1 [Example 285, 4-(furo[3,2-c]pyridin-4-yl)-N-(trans-4-methoxycyclohexyl)benzamide] | 8.70 |
| [2H]C([2H])([2H])O[C@H]1CC[C@H](NC(=O)c2ccc(-c3nccc4occc34)cc2)CC1 [Example 286, 4-(furo[3,2-c]pyridin-4-yl)-N-[trans-4-(methoxy-d3)cyclohexyl]benzamide] | 9.00 |
| CCO[C@H]1CC[C@H](NC(=O)c2ccc(-c3nccc4occc34)cc2)CC1 [Example 287, N-(trans-4-ethoxycyclohexyl)-4-(furo[3,2-c]pyridin-4-yl)benzamide] | 9.06 |
| CC(C)O[C@H]1CC[C@H](NC(=O)c2ccc(-c3nccc4occc34)cc2)CC1 [Example 288, 4-(furo[3,2-c]pyridin-4-yl)-N-(trans-4-isopropoxycyclohexyl)benzamide] | 8.89 |
| CC[C@]1(O)CC[C@H](NC(=O)c2ccc(-c3nccc4occc34)cc2)CC1 [Example 289, N-(trans-4-ethyl-4-hydroxycyclohexyl)-4-(furo[3,2-c]pyridin-4-yl)benzamide] | 8.80 |
| CC[C@]1(O)CC[C@@H](NC(=O)c2ccc(-c3nccc4occc34)cc2)CC1 [Example 290, N-(cis-4-ethyl-4-hydroxycyclohexyl)-4-(furo[3,2-c]pyridin-4-yl)benzamide] | 8.89 |
| O=C(N[C@H]1CC[C@](O)(C2CC2)CC1)c1ccc(-c2nccc3occc23)cc1 [Example 291, N-(cis-4-cyclopropyl-4-hydroxycyclohexyl)-4-(furo[3,2-c]pyridin-4-yl)benzamide] | 8.62 |
